The values that follow come from patent US20230129595A1, “PARENTERAL NUTRITION SOLUTION COMPRISING A SELENIUM SOURCE” (BAXTER INTERNATIONAL INC., priority 2019, published 2023).

Structures are written as SMILES.

Data set [1] is described as follows: Selenium stability in sterilized multi trace element solutions, recovery of initial concentration (Example 4, FIGS. 1-3). To be noted: for Selenium concentration during storage: FIGS. 1-3. An excerpt:
FIGS. 1-3: The recovery of the initial concentration of the different trace elements in percent (%) is indicated on the Y-axis of the Figures. The analyzed timepoints are is indicated on the X-axis. The timepoint −0.5 corresponds to the results of TE dosage on unsterilized sample at T0. Timepoint 0 corresponds to the results of TE dosage right after sterilization. Timepoint 0.5 correspond to the results of TE dosage after an accelerated stability stress cycle (i.e. three repetition of alternatively 5° C./50° C., 48 h/48 h). Timepoints 1, 3 and 6 correspond to the results of TE dosage after 1 month, 3 months and 6 months storage at 40° C./25% RH.
For the three tested solutions containing different forms of selenium, the selenium is mixed with other TE (Zn, Cu, Mn, F, I, Mo, Cr, Fe), which were introduced as chloride salts. The solutions were acidified to pH 2.2 using malic acid and underwent terminal heat sterilization prior to storage.

The conditions of data set [2]: cited from earlier work.
For data set [3] the following is noted: Pediaven, trace elements in the glucose chamber; announced July 2014; cited from earlier work.
Data set [4] can be described thus: Storage stability of selenium sources in a separate chamber (Example 3). The following applies: separated chamber, alone or together with other trace elements; after 6 months storage at 40° C./25% RH. The text has this:
Selenate was introduced with other trace elements into a separate chamber from macronutrients.

Setting [5] is: mixed with other TE, pH 2.2 with malic acid, terminal heat sterilization.
Setting [6] is: mixed with other TE, pH 2.2 with malic acid, terminal heat sterilization, storage at 40° C./25% RH, selenate and selenomethionine compared with selenite.

As to `C[Se]CC[C@H](N)C(=O)O` [selenomethionine], the “Selenium concentration during storage” value in data set [1] (setting [5]) is given as “remained stable”. Further, the “Stability of selenium after storage for three months” value (“Stability of selenium after storage” below) in data set [1] (pH 2.2) is “better stability”.
As for `[Na+].[Na+].[O]=[Mo](=[O])([O-])[O-]` [Na2MoO4, 2H2O, sodium molybdate], the “Chemical form; Solubility in water” value in data set [2] was below 840 mg/mL.
Take `O=[Se]=O` [selenium dioxide]: in data set [3], the “Presence of selenium in the finished product” value is “absent in the finished product”.
Consider `O=[Se](=O)(O)O` [sodium selenate], for which the Stability in solution result in data set [4] is “remained stable”. In addition, the “Selenium concentration during storage” value in data set [1] (setting [5]) is “remained stable”. Also, the “Stability of selenium after storage” value in data set [1] (setting [6]) was “better stability”.
Regarding `O=[Se](O)O` [selenite, reference compound], the “Stability of selenium after storage” value in data set [1] (setting [6]) is “lack of stability”.
`N[C@@H](C[SeH])C(=O)O` [selenocysteine]: the Stability in solution result in data set [4] is on record as “remained stable”.
